Test results as given in EP0212822A1, “A composition containing a plant growth regulator and an alkanol and a method of using the same” (ICI AMERICAS INC., priority 1985, dated 1987).
“Also recorded” adds a separate entry of the source.

Legend:
[1] = system: Liquidambar styraciflua (Sweetgum); experiment: Trunk injection of PGR in ethanol or methanol, ratings; type: in vivo
Procedure: The examples which follow exemplify the improvements obtained by this invention. However, these examples are not intended to limit the scope of the invention. In Examples 1-41, the subject trees were injected at a distance approximately one foot from the soil line by drilling 7/32 inch diameter holes to a 2 inch depth at a 30-45° angle tangential to the trunk with a pressure injector (150 psi) purchased from the Asplundh Tree Expert Co., Company No. 346-3502. The results are expressed in terms of Retardation and Uniformity Ratings. The Retardation rating scale is as follows: • 0 = no retardataion • 1 = 1-20% retardation • 2 = 21-40% retardation • 3 = 41-60% retardation • 4 = 61-80% retardation • 5 = 81-100% retardation
The Uniformity Rating is a measure of the consistency of response to the treatment between different branches of the tree. The Uniformity scale employed is as follows: • 0 = no effect from PGR • 1 = poor • 2 = fair • 3 = acceptable • 4 = very good • 5 = excellent
20 grams of PGR were dissolved in 1 liter of solvent at room temperature and stirred until the solution was clear, approximately 20 minutes. The solution was injected into the trunk of Liquidambar styraciflua (Sweetgum).

Vicia faba (Broadbean) = experiment: Stem injection with hypodermic syringe, growth as % of control; type: in vivo; settings: 0.1 ml injected, averaged over four replications
Procedure: 10 grams of PGR were dissolved in 1 liter of solvent at room temperature and stirred until the solution was clean, approximately 20 minutes. 0.1 ml of the solution was injected, […] above the soil level, in Vicia faba (Broadbean) with a hypodermic syringe.

[2] = Adsorption of tracer dyes to sawdust; type: physicochemical, Birch and Ash
Procedure: 0.1 g of methylene blue and 0.1 g of acid fuschin were each dissolved in 1 liter of methanol (Me), […] methanol/water (Me/Wa) and water (Wa). 2 g (fresh weight) of sawdust taken from the active conductive tissues of Birch and Ash were combined with 20 ml of solution. The dye solutions were shaken overnight. The supernatant was decanted and the quantity of dye remaining in solution estimated by spectroscopy.

[3] = week 2, 20 grams of PGR in 1 liter Ethanol
[4] = week 2, 20 grams of PGR in 1 liter Methanol
[5] = week 6, 20 grams of PGR in 1 liter Ethanol
[6] = week 6, 20 grams of PGR in 1 liter Methanol
[7] = 14 days, 10 grams of PGR in 1 liter Ethanol
[8] = 14 days, 10 grams of PGR in 1 liter Methanol
[9] = 21 days, 10 grams of PGR in 1 liter Ethanol
[10] = 21 days, 10 grams of PGR in 1 liter Methanol

Row | binding of dye to wood ([2]; methanol as solvent) | binding of dye to wood ([2]; methanol as solvent, listed as Methylene blue) | binding of dye to wood ([2]; water as solvent) | binding of dye to wood ([2]; water as solvent, listed as Methylene blue) | SMILES | Retardation/ Uniformity Ratings at Indicated Week After Treatment [1, 3] | Retardation/ Uniformity Ratings at Indicated Week After Treatment [1, 4] | Retardation/ Uniformity Ratings at Indicated Week After Treatment [1, 5] | Retardation/ Uniformity Ratings at Indicated Week After Treatment [1, 6] | Growth (% Control) At Indicated Days After Treatment (Vicia faba (Broadbean); [7]) | Growth (% Control) At Indicated Days After Treatment (Vicia faba (Broadbean); [8]) | Growth (% Control) At Indicated Days After Treatment (Vicia faba (Broadbean); [9]) | Growth (% Control) At Indicated Days After Treatment (Vicia faba (Broadbean); [10]) | binding of dye to wood ([2]; either solvent (water and methanol))
1 |  |  |  |  | CC(C)(C)C(O)C(Cc1ccc(Cl)cc1)n1cncn1 (stereo not drawn) [PGR-1] | 1 (1 = 1-20% retardation) | 1 (1 = 1-20% retardation) | 3 (3 = 41-60% retardation) | 4 (4 = 61-80% retardation) | 13 % Control | 12 % Control | 18 % Control | 17 % Control | 
2 |  |  |  |  | CC(C)C(O)(c1ccc(OC(F)(F)F)cc1)c1cncnc1 (stereo not drawn) [PGR-2] | 1 (1 = 1-20% retardation) | 1 (1 = 1-20% retardation) | 3 (3 = 41-60% retardation) | 3 (3 = 41-60% retardation) | 6 % Control | 10 % Control | 7 % Control | 10 % Control | 
3 |  |  |  |  | CC1=CC(=C(c2ccc(N)c(S(=O)(=O)O)c2)c2ccc(N)c(S(=O)(=O)O)c2)C=C(S(=O)(=O)O)C1=N [acid fuschin] |  |  |  |  |  |  |  |  | binds only partially; also recorded: binds weakly
4 | binds weakly | weakly | binding almost completely | binds strongly | CN(C)c1ccc2nc3ccc(=[N+](C)C)cc-3sc2c1 [methylene blue] |  |  |  |  |  |  |  |  | 
